No end group written: not given here.
Assays:
[1] = Intranasal PYY(3-36) pharmacokinetics in rabbits with various TJMPs (Example 10); format: in vivo, New Zealand White rabbits; conditions: for In Vivo Tier Ranking: PYY(3-36) 205 μg/kg intranasal, TJMP concentration per Table 11: PN159 50 μM, PN161, PN202 100 μM, PN27 250 μM, PN58, PN73, PN228 500 μM, PN183, PN556 1000 μM; for In Vivo Tier Ranking / AUCinf / AUClast / Cmax / T1/2 / Tmax: rabbit; for AUCinf / AUClast / Cmax / T1/2 / Tmax: PYY(3-36) in plasma, 205 μg/kg intranasal with the named TJMP (concentration per Table 11, 50-1000 μM) or PBS, mean; for in vivo permeability relative to PN159: PYY(3-36) intranasal in rabbits, TJMPs at the concentrations tested
Text: The tubes were chilled until […].

[2] = test system: in vitro epithelial tissue model; experiment: Papp of drugs with and without PN159, in vitro tissue model; conditions: for Papp: Galantamine 40 mg/mL, pH 5.0
Method: In the present studies, 40 mg/ml galantamine in the lactate salt form was combined with 25, 50, and 100 μM PN159 in solution, pH 5.0 and osmolarity ˜270 mOsm. The combination was tested using an in vitro epithial tissue model to monitor galantamine permeation, transepithelial electrical resistance (TER), and the cytotoxicity of the formulation by LDH and MTT assays as described above. Permeation measurements for galantamine were conducted by standard HPLC analysis, as follows.
Galantamine concentration in the formulation and in the basolateral media (permeation samples) was determined using an isocratic LC (Waters Alliance) method with UV detection. • Column: Waters Symmetry Shield, C18, 5 um, 25×0.46 cm • Mobile phase: 5% ACN in 50 mM ammonium formate, pH 3.0 • Flow rate: 1 ml/min • Column temperature: 30° C. • Calibration curve: 0-400 μg/ml Galantamine HBr • Detection: UV at 285 nm
To evaluate permeabilizing activity in this context, 40 mg/ml galantamine in the lactate salt form was combined with 25, 50, and 100 μM PN159 in solution, pH 5.0 and osmolarity ˜270 mOsm. The combination was tested using an in vitro epithelal tissue model to monitor galantamine permeation, transepithelial electrical resistance (TER), and the cytotoxicity of the formulation by LDH and MTT assays.
For this purpose, in vitro tissue studies were performed on salmon calcitonin as a model therapeutic peptide in the absence and presence of […] PN159.

[3] = test system: human-derived tracheal/bronchial epithelial cells (EpiAirway™ Tissue model system); experiment: Cytotoxicity (LDH assay), EpiAirway tissue model; format: cell-based
Method: The amount of cell death was assayed by measuring the release of lactate dehydrogenase (LDH) from the cells into the apical medium using a CytoTox 96 Cytotoxicity Assay Kit (Promega Corp., Madison, Wis.). One percent Octylphenolpoly (ethyleneglycolether)×(Triton X-100™) diluted in phosphate buffered saline (PBS) causes 100% lysis in cultured cells and served herein as a positive control for the LDH assay. Following the one hour incubation period with a test formulation (refer to Table 4 in Example 2 for details of test formulations), the total liquid volume of each insert was brought to a final volume of 200 μl with culture medium. The apical medium was then mixed by pipetting four times with a multichannel pipette set to a 100 μl volume. After mixing, a 100 μl sample from the apical side of each insert was transferred to a new 96-well plate. The apical media samples were sealed with a plate sealer and stored at room temperature for same day analysis or stored overnight at 4° C. for analysis the next day. To measure LDH levels, 5 μl of the 100 μl apical media sample was diluted in 45 μl DPBS in a new 96-well plate. Fresh, cell-free culture medium will be used as a blank. Fifty microliters of substrate solution was added to each well and incubated for 30 minutes at room temperature away from direct light. Following the 30 minute incubation, 50 μl of stop solution was added to each well. Optical density (OD) was measured at 490 nm with a uQuant absorbance plate reader from Biotek Instruments. The measurement of LDH release into the apical media indicates relative cytotoxicity of the samples. Percent cytotoxicity for each test formulation was calculated by subtracting the measured absorbance of the PBS control (basal level of LDH release) from the measured absorbance of the individual test formulation and then dividing that value by the measured absorbance for the 1% Triton X-100™ positive control, multiplied by 100.
The formula used to calculate percent cytotoxicity is as follows: [formula] Osmolality
Of the total 300 μl volume for each test formulation, only a 20 μl sample was applied to the human-derived tracheal/bronchial epithelial cells (EpiAirway™ Tissue model system) in order to assess the effect each test formulation had on TER, LDH and sample permeation.

| Compound | AUCinf [1] [pg·min/mL] | AUClast [1] [pg·min/mL] | Cmax [1] [ng/mL] | T1/2 [1] [min] | Tmax [1] [min] | also measured |
| --- | --- | --- | --- | --- | --- | --- |
| AAVALLPAVLLALLAPRKKRRQRRRPPQ-NH2 [PN27] | 1.71e+06 | 1.67e+06 | 29.3 | 29.9 | 33.0 | In Vivo Tier Ranking [1]: I; in vivo permeability relative to PN159 [1]: comparable to PN159 |
| CC(C)C[C@H](NC(=O)[C@H](CCCCN)NC(=O)CNC(=O)[C@H](CC(C)C)NC(=O)[C@@H](NC(=O)[C@@H]1CSSC[C@H](N)C(=O)N[C@@H](CO)C(=O)N[C@@H](CC(N)=O)C(=O)N[C@@H](CC(C)C)C(=O)N[C@@H](CO)C(=O)N[C@@H]([C@@H](C)O)C(=O)N1)C(C)C)C(=O)N[C@@H](CO)C(=O)N[C@@H](CCC(N)=O)C(=O)N[C@@H](CCC(=O)O)C(=O)N[C@@H](CC(C)C)C(=O)N[C@@H](Cc1c[nH]cn1)C(=O)N[C@@H](CCCCN)C(=O)N[C@@H](CC(C)C)C(=O)N[C@@H](CCC(N)=O)C(=O)N[C@H](C(=O)N[C@@H](Cc1ccc(O)cc1)C(=O)N1CCC[C@H]1C(=O)N[C@@H](CCCNC(=N)N)C(=O)N[C@H](C(=O)N[C@@H](CC(N)=O)C(=O)N[C@H](C(=O)NCC(=O)N[C@@H](CO)C(=O)NCC(=O)N[C@H](C(=O)N1CCC[C@H]1C(N)=O)[C@@H](C)O)[C@@H](C)O)[C@@H](C)O)[C@@H](C)O [Calcitonin, salmon calcitonin] |  |  |  |  |  | fold increase in Papp of calcitonin with PN159 [2]: 23-47 fold |
| CC[C@H](C)[C@H](NC(=O)[C@H](CCCCN)NC(=O)[C@H](CCCCN)NC(=O)[C@H](C)NC(=O)[C@H](CC(C)C)NC(=O)[C@H](C)NC(=O)[C@H](C)NC(=O)[C@H](CC(C)C)NC(=O)[C@H](C)NC(=O)[C@H](CCCCN)NC(=O)[C@H](CC(C)C)NC(=O)[C@H](CC(N)=O)NC(=O)[C@@H](NC(=O)[C@H](CCCCN)NC(=O)CNC(=O)[C@H](CC(C)C)NC(=O)[C@H](CC(C)C)NC(=O)[C@H](Cc1ccc(O)cc1)NC(=O)CNC(=O)[C@H](C)NC(=O)[C@H](CO)NC(=O)[C@H](CC(N)=O)NC(=O)[C@H](CC(C)C)NC(=O)[C@@H](NC(=O)[C@H](Cc1c[nH]c2ccccc12)NC(=O)CN)[C@@H](C)O)[C@@H](C)CC)C(=O)N[C@@H](CC(C)C)C(N)=O [PN161] | 1.65e+06 | 1.62e+06 | 32.1 | 34.3 | 24.0 | In Vivo Tier Ranking [1]: I; in vivo permeability relative to PN159 [1]: comparable to PN159 |
| LRKLRKRLLRLRKLRKRLLR-NH2 [PN745] |  |  |  |  |  | LDH ([3]; 25 μM peptide, 1 h incubation, % of 1% Triton X-100 control): 11%; LDH ([3]; 100 μM peptide, 1 h incubation, % of 1% Triton X-100 control): 28%; LDH ([3]; 250 μM peptide, 1 h incubation, % of 1% Triton X-100 control): 45%; LDH ([3]; 500 μM peptide, 1 h incubation, % of 1% Triton X-100 control): 45%; LDH ([3]; 1000 μM peptide, 1 h incubation, % of 1% Triton X-100 control): 45% |
| Octylphenolpoly (ethyleneglycolether)× [Triton X-100, reference compound] |  |  |  |  |  | LDH ([3]; 1% Triton X-100, positive (100% release) control): 100% |
| COc1ccc2c3c1O[C@H]1C[C@@H](O)C=C[C@@]31CCN(C)C2 [Galantamine, galantamine] |  |  |  |  |  | fold increase in Papp of galantamine with PN159 ([2]; 40 mg/ml galantamine lactate, pH 5.0, with 25, 50, 100 PN159 versus without): 2.5-3.5 fold; Papp ([2]; [PN159] 0 μM): 2.1 ×10⁻⁶ cm/s; Papp ([2]; [PN159] 0 μM, listed as galantamine): about 2.1×10^−6 cm/s; Papp ([2]; [PN159] 25 μM): 5.1 ×10⁻⁶ cm/s; Papp ([2]; [PN159] 50 μM): 6.2 ×10⁻⁶ cm/s; Papp ([2]; [PN159] 100 μM): 7.2 ×10⁻⁶ cm/s |
| KETWWETWWTEWSQPGRKKRRQRRRRPPQ-NH2 [PN183] | 275000 | 258000 | 5.45 | 33.7 | 22.0 |  |
| CC[C@H](C)[C@H](NC(=O)[C@H](CCCCN)NC(=O)[C@@H](NC(=O)[C@H](CCC(N)=O)NC(=O)[C@@H](N)CCCNC(=N)N)[C@@H](C)CC)C(=O)N[C@@H](Cc1c[nH]c2ccccc12)C(=O)N[C@@H](Cc1ccccc1)C(=O)N[C@@H](CCC(N)=O)C(=O)N[C@@H](CC(N)=O)C(=O)N[C@@H](CCCNC(=N)N)C(=O)N[C@@H](CCCNC(=N)N)C(=O)N[C@@H](CCSC)C(=O)N[C@@H](CCCCN)C(=O)N[C@@H](Cc1c[nH]c2ccccc12)C(=O)N[C@@H](CCCCN)C(=O)N[C@@H](CCCCN)C(N)=O [PN58] | 871000 | 830000 | 12.8 | 29.5 | 43.0 |  |
| KLWSAWPSLWSSLWKP-NH2 [PN228] | 1.08e+06 | 1.06e+06 | 21.2 | 30.4 | 31.0 |  |
| CC[C@H](C)[C@H](NC(=O)[C@H](CCC(=O)O)NC(=O)[C@H](CO)NC(=O)[C@@H](NC(=O)[C@@H](N)CO)C(C)C)C(=O)N[C@@H](CCC(N)=O)C(=O)N[C@@H](CC(C)C)C(=O)N[C@@H](CCSC)C(=O)N[C@@H](Cc1cnc[nH]1)C(=O)N[C@@H](CC(N)=O)C(=O)N[C@@H](CC(C)C)C(=O)NCC(=O)N[C@@H](CCCCN)C(=O)N[C@@H](Cc1cnc[nH]1)C(=O)N[C@@H](CC(C)C)C(=O)N[C@@H](CC(N)=O)C(=O)N[C@@H](CO)C(=O)N[C@@H](CCSC)C(=O)N[C@@H](CCC(=O)O)C(=O)N[C@@H](CCCN=C(N)N)C(=O)N[C@H](C(=O)N[C@@H](CCC(=O)O)C(=O)N[C@@H](Cc1c[nH]c2ccccc12)C(=O)N[C@@H](CC(C)C)C(=O)N[C@@H](CCCN=C(N)N)C(=O)N[C@@H](CCCCN)C(=O)N[C@@H](CCCCN)C(=O)N[C@@H](CC(C)C)C(=O)N[C@@H](CCC(N)=O)C(=O)N[C@@H](CC(=O)O)C(=O)N[C@H](C(=O)N[C@@H](Cc1cnc[nH]1)C(=O)N[C@@H](CC(N)=O)C(=O)N[C@@H](Cc1ccccc1)C(=O)O)C(C)C)C(C)C [PTH1-34, human parathyroid hormone 1-34] |  |  |  |  |  | fold increase in Papp of PTH1-34 with PN159 [2]: 3-5 fold |

— US20070154449A1, “TIGHT JUNCTION MODULATING PEPTIDES FOR ENHANCED MUCOSAL DELIVERY OF THERAPEUTIC COMPOUNDS” (Nastech Pharmaceutical Company Inc., priority 2005, published 2007)
